From patent publication US9895349B2, “N-phenyl-carboxamide derivatives and the use thereof as medicaments for the treatment of hepatitis B” (priority 2013, dated 2018)

Assays:
HBV [1] = test: Anti-HBV activity, HepG2.2.15 stable transfected cell line, HBV DNA from secreted virions by realtime PCR; format: cell-based, Hepatitis B virus (HBV); details: HepG2.2.15 cells, 6 days of treatment
HBV [2] = test: Anti-HBV activity, HepG2.117 inducibly HBV producing cell line (Tet-off), intracellular HBV DNA by realtime PCR; format: cell-based, Hepatitis B virus (HBV); details: HepG2.117 cells, 3 days of treatment
[3] = Cytotoxicity in HepG2 cells, Resazurin assay; details: human
[4] = Hepatitis B virus, HepG2.2.15, 144 h
[5] = Hepatitis B virus, HepG2.117, 72 h

SMILES: Cc1cc(NC(=O)C2(C)CCN(S(=O)(=O)CC(C)C)C2)ccc1F (racemic) [Compound 29, N-(4-fluoro-3-methyl-phenyl)-1-isobutylsulfonyl-3-methyl-pyrrolidine-3-carboxamide]
- EC50 (HBV [1]; [4]): 13700 nM
- EC50 (HBV [2]): 18900 nM
- CC50 at 4 days [3]: > 25000 nM

SMILES: Cc1cc(NC(=O)C2(F)CCN(S(=O)(=O)NC(C)C)C2)ccc1F (racemic) [Compound 35a, 3-fluoro-N-(4-fluoro-3-methyl-phenyl)-1-(isopropylsulfamoyl)pyrrolidine-3-carboxamide]
- EC50 (HBV [1]): 563 nM
- EC50 (HBV [2]): 228 nM
- CC50 at 4 days [3]: > 25000 nM

SMILES: Cc1cc(NC(=O)[C@@H]2CN(S(=O)(=O)NC(C)C)C[C@H]2C)ccc1F (relative stereo) [Compound 41, trans-N-(4-fluoro-3-methyl-phenyl)-1-(isopropylsulfamoyl)-4-methyl-pyrrolidine-3-carboxamide]
- EC50 (HBV [1]; [4]): 530 nM
- EC50 (HBV [2]; [5]): 420 nM
- CC50 at 4 days [3]: > 25000 nM

SMILES: Cc1cc(NC(=O)C2CN(S(=O)(=O)NC(C)C)C3CC23)ccc1F (single isomer, unassigned) [Compound 36a, N-(4-fluoro-3-methyl-phenyl)-2-(isopropylsulfamoyl)-2-azabicyclo[3.1.0]hexane-4-carboxamide]
- EC50 (HBV [1]): 2390 nM
- EC50 (HBV [2]): 2650 nM
- CC50 at 4 days [3]: > 25000 nM

SMILES: Cc1cc(NC(=O)C2(F)CCN(S(=O)(=O)N[C@H]3CCOC3)C2)ccc1F (single isomer, unassigned) [Compound 42a]
- EC50 (HBV [1]; [4]): > 5000 nM
- EC50 (HBV [2]): > 5000 nM
- CC50 at 4 days [3]: > 25000 nM

SMILES: Cc1cc(NC(=O)C2CCN(S(=O)(=O)CC(C)C)C2)ccc1F (centres unmarked) [Compound 1, N-(4-fluoro-3-methyl-phenyl)-1-isobutylsulfonyl-pyrrolidine-3-carboxamide]
- EC50 (HBV [1]; [4]): 940 nM
- EC50 (HBV [2]; [5]): 720 nM
- CC50 at 4 days [3]: > 25000 nM

SMILES: Cc1cc(NC(=O)[C@H]2CCN(S(=O)(=O)CC(C)C)C2)ccc1F [Compound 2, (3S)—N-(4-fluoro-3-methyl-phenyl)-1-isobutylsulfonyl-pyrrolidine-3-carboxamide]
- EC50 (HBV [1]; [4]): 1320 nM
- EC50 (HBV [2]; [5]): 310 nM
- CC50 at 4 days [3]: > 25000 nM

SMILES: Cc1cc(NC(=O)[C@@H]2CCN(S(=O)(=O)CC(C)C)C2)ccc1F [Compound 3, (3R)—N-(4-fluoro-3-methyl-phenyl)-1-isobutylsulfonyl-pyrrolidine-3-carboxamide]
- EC50 (HBV [1]; [4]): > 25000 nM
- EC50 (HBV [2]; [5]): 1490 nM
- CC50 at 4 days [3]: > 25000 nM

SMILES: CCCS(=O)(=O)N1CC[C@H](C(=O)Nc2ccc(F)c(C)c2)C1 [Compound 6, (3S)—N-(4-fluoro-3-methyl-phenyl)-1-propylsulfonyl-pyrrolidine-3-carboxamide]
- EC50 (HBV [1]; [4]): 1900 nM
- EC50 (HBV [2]; [5]): 620 nM
- CC50 at 4 days [3]: > 25000 nM

SMILES: Cc1cc(NC(=O)[C@H]2CCN(S(=O)(=O)CC3CC3)C2)ccc1F [Compound 8, (3S)-1-(cyclopropylmethylsulfonyl)-N-(4-fluoro-3-methyl-phenyl)pyrrolidine-3-carboxamide]
- EC50 (HBV [1]; [4]): 580 nM
- EC50 (HBV [2]; [5]): 330 nM
- CC50 at 4 days [3]: > 25000 nM

SMILES: Cc1cc(NC(=O)[C@H]2CCN(S(=O)(=O)C3CCOCC3)C2)ccc1F [Compound 9, (3S)—N-(4-fluoro-3-methyl-phenyl)-1-tetrahydropyran-4-ylsulfonyl-pyrrolidine-3-carboxamide]
- EC50 (HBV [1]; [4]): 1400 nM
- EC50 (HBV [2]; [5]): 950 nM
- CC50 at 4 days [3]: > 25000 nM

SMILES: Cc1cc(NC(=O)[C@H]2CCN(S(=O)(=O)C3CCCC3)C2)ccc1F [Compound 10, (3S)-1-cyclopentylsulfonyl-N-(4-fluoro-3-methyl-phenyl)pyrrolidine-3-carboxamide]
- EC50 (HBV [1]; [4]): 4300 nM
- EC50 (HBV [2]; [5]): 760 nM
- CC50 at 4 days [3]: 22900 nM

SMILES: Cc1cc(NC(=O)[C@H]2CCN(S(=O)(=O)N[C@H](C)CO)C2)ccc1F [Compound 39, (3S)—N-(4-fluoro-3-methyl-phenyl)-1-[[(1R)-2-hydroxy-1-methyl-ethyl]sulfamoyl]pyrrolidine-3-carboxamide]
- EC50 (HBV [2]; [5]): 150 nM
- CC50 at 4 days [3]: > 25000 nM
